The values that follow come from patent publication US9265189B2, “Method for reducing damage by harmful organisms in corn cultivation” (SUMITOMO CHEMICAL COMPANY, LIMITED, priority 2012, dated 2016).

The structures appear in SMILES notation.

What all share (type): in vivo
The subject of experiment [1] is Diabrotica virgifera virgifera and Agriotes lineatus. Nature of the experiment: Field test, corn lodged due to damage by Diabrotica virgifera virgifera and Agriotes lineatus (Example 5). The following applies: Example section 5: clothianidin 80 g/ha, in-furrow spray of Dantop 50WG 125 L/ha, corn DKC 5143 seed treated with Maxim XL, MaisTer pre-treatment, 155 days after application; non-treatment section 36. From the text:
A chemical fertilizer (N:P:K=15:15:15) was applied to the soil surface of a cultivated land at 300 kg/ha, and the cultivated land was then plowed. In order to prevent generation of weeds, 28 days after fertilization, the whole cultivated land was spraying-treated with a mixed agent (using 610 g/kg water dispersible granule, trade name: […], manufactured by Bayer CropScience) of foramsulfuron and an iodosulfuron-methyl-sodium salt, each of which being a herbicide, and a safener, isoxadifen-ethyl, at 0.15 L/ha in terms of an application amount of the preparation. 3 days after application of the preparation, using a pneumatic seeder (disk furrow opener) equipped with a power sprayer, a cultivated land was ditched at intervals of 75 cm to a depth of 5 cm from the soil surface, and the furrow was seeded with corn (variety name: DKC 5143; hybrid variety, manufactured by Monsanto). […] 155 days after application of the clothianidin water dispersible granule, the number of plants of corn lodged due to damage by Diabrotica virgifera virgifera and Agriotes lineatus in the furrows of the example section 5 and the non-treatment section, for which the number of plants of corn germinated was investigated, was investigated, a lodge rate was calculated in accordance with the following equation, and then an average lodge rate for the four investigation sections was determined. […]

The subject of a further experiment is Agriotes spp. Nature of the experiment: Field test, corn plants damaged by Agriotes spp. after in-furrow spray (Example 2). The following applies: Example section 2: clothianidin 50 g/ha, in-furrow spray of Dantop 50WG aqueous suspension 100 L/ha, corn DK 440, 34 days after application; non-treatment section 73.3. As for the experimental part:
Using a pneumatic seeder (disk furrow opener, manufactured by Gaspardo) equipped with a power sprayer (trade name: WJR 2525, manufactured by HONDA), a cultivated land was ditched at intervals of 75 cm to a depth of 3 cm from the soil surface, and the furrow was seeded with corn (Zea Mays, trade name: DK 440; hybrid variety, manufactured by Monsanto) at intervals of […]. A seeding density of corn was 100000 seeds/ha. Then, the furrow was spray-treated with an aqueous suspension of a clothianidin water dispersible granule (using a 50% dispersible granule, trade name: Dantop 50WG, manufactured by Philagro) at 100 L/ha so that the application amount of clothianidin was 50 g/ha, and then a soil on the side of the furrow was gathered together to close the furrow. This was defined as an example section 2. For comparison, a non-treatment section, which was seeded with corn without application of a clothianidin water dispersible granule, was provided. […] 34 days after application of the clothianidin water dispersible granule, the number of plants of corn damaged by Agriotes spp. in each of the example section 2 and the non-treatment section was investigated, a damage plant rate was calculated in accordance with the following equation, and then an average damage plants rate of the four investigation sections was determined. […]

Experiment [2] deals with Diabrotica virgifera virgifera and Agriotes lineatus. Briefly: Field test, lodge rate, clothianidin in-furrow, herbicides plus cyprosulfamide on soil (Example 7). The following applies: clothianidin 50 g/ha in-furrow spray 125 L/ha, thiuram-treated seed, 165 days after application; example in present tense. An excerpt:
A chemical fertilizer (N:P:K=15:15:15) is applied to the soil surface of a cultivated land at 300 kg/ha, and the cultivated land is then plowed. 7 days after fertilization, for suppressing generation of weeds, the soil surface of the whole cultivated land is spray-treated with a mixed liquid containing thiencarbazone-methyl and isoxaflutole, each of which being a herbicide, and cyprosulfamide which is a safener at 150 L/ha so that the application amounts of thiencarbazone-methyl, isoxaflutole and cyprosulfamide are 9.2 g/ha, 23 g/ha and 15 g/ha, respectively. 21 days after fertilization, using a pneumatic seeder (disk furrow opener) equipped with a power sprayer, a cultivated land is ditched at intervals of 75 cm to a depth of 5 cm from the soil surface, and the furrow is seeded with corn (Zea Mays; hybrid variety). […] 165 days after application of the aqueous suspension of clothianidin, the number of plants of corn lodged due to damage by Diabrotica virgifera virgifera and Agriotes lineatus in the furrows of the treatment section and the non-treatment section, for which the number of plants of corn germinated is investigated, is investigated, a lodge rate is calculated in accordance with the following equation, and then an average lodge rate for the four investigation sections is determined.

For `CN/C(=N\[N+](=O)[O-])NCc1cnc(Cl)s1` [clothianidin], the “Lodge rate (%)” value in experiment [1] amounted to 0%. For the same compound, the “Damage plant rate (%)” value in the experiment with Agriotes spp. is given as 7.7%. The “Lodge rate compared to non-treatment section” value in experiment [2] is reported as “low lodge rate as compared to the non-treatment section”.
